Several values for one entry are separate records, joined by “and”; a condition that tells them apart may be missing. Equal values may be shown once.
Test system: 429239-143-T-J1-PDC complex spheroid viability
Assay: Anticancer human tumor 429239-143-T-J1-PDC patient-derived small cell lung carcinoma cell line growth inhibition [POLQ]
Conditions: for viability, T/C: stronger effect = lower value
Experimental: Multicellular complex tumor spheroid response to Polymerase (POL) inhibitors (novobiocin, ART-558, RP6685) in combination with a variety of drugs and investigational agents in selected tumor cell lines
The POL inhibitors (novobiocin, ART-558, and RP6685) were evaluated both individually and in combination with standard of care and investigational anticancer small molecules within a complex spheroid model of solid tumors. . Complex spheroids include a stromal component modeled by human endothelial cells (HUVEC) and fibroblasts modeled by human mesenchymal stem cells (MSCs). The concentration ranges selected for each drug and investigational agent were based upon clinically achievable concentrations if the clinical Cmax of the agent was known.
Compounds. The drugs and investigational agents: novobiocin (NSC847541), ART-558 (NSC835418), RP-6685 (NSC848927), peposertib (NSC802822), ceralasertib (NSC780249), elimusertib (NSC800525), camonsertib (NSC841442), AZD-1390 (NSC803789), olaparib (NSC753686), talazoparib (NSC767125), rucaparib (NSC756644), sotorasib (NSC818433), MRTX-1133 (NSC836407), SN-38 (NSC673596), topotecan (NSC609699), epotoside (NSC141540), doxorubicin (NSC123127), gemcitabine (NSC613327), 5-fluorouracil (NSC19893), paclitaxel (NSC125973), vemurafenib (NSC761431), MSA-2 (NSC828583), SN-011 (NSC837082), adavosertib (NSC754352), prexasertib (NSC758257), carboplatin (NSC241240) and oxaliplatin (NSC266046), were obtained from the National Cancer Institute (NCI) Developmental Therapeutics Program Chemical Repository (21). The FDA-approved anticancer drug set is available from the Developmental Therapeutics Program at https://dtp.cancer.gov/organization/dscb/obtaining/. […] The stock solutions were prepared in dimethyl sulfoxide (DMSO, Sigma-Aldrich, St. Louis, MO, cat. D2650), except for the platinum compounds which were prepared in saline (Quality Biological, Gaithersburg, MD, cat. 114-055-101), at 800-fold the tested concentration and stored at -70 degrees C prior to their use. All drugs and investigational agents were tested over a range starting from a high concentration at or near the clinical Cmax and decreasing in half-log increments. If the clinical Cmax for an agent had not been determined, the highest concentration tested was 10 microM, except for SN-38, which was tested at a high concentration of 1 microM.
Cell Culture. All cells were maintained in an incubator at 37 degrees C and 5% CO2 with 95% humidity. The PDC lines were cultured according to standard operating procedures established by the NCI PDMR (https://pdmr.cancer.gov). Table 3 of the manuscript, lists the cell lines along with the number of the three cell types plated to form the mct-spheroids and media for tumor cell growth. After thawing, all PDC lines, except 997537-175-T-J1-PDC and 415267-285-R-J2-PDC, were cultured in Matrigel-coated flasks prepared with a working solution of 1X Ham's F-12 nutrient mix, without supplementation (Thermo Fisher Scientific, cat. 11765054), 100 U/mL penicillin-streptomycin (Thermo Fisher Scientific, cat. 15140122), and 2.5% Matrigel (Corning Inc., Corning, NY, cat. 354248) for the first three passages. The two PDC lines 997537-175-T-J1-PDC and 415267-285-R-J2-PDC were cultured on uncoated flasks. The 857933-349-R-J2-PDC line was cultured in 6C/Colon 1B media containing advanced DMEM/F-12 (Thermo Fisher Scientific, cat. 12634028), 10 mM HEPES (Thermo Fisher Scientific, cat. 15630080), 1X GlutaMAX supplement (Thermo Fisher Scientific, cat. 35050061), 0.1 mg/mL primocin (InvivoGen, San Diego, CA, cat. ant-pm-2), 10% defined fetal bovine serum, heat inactivated (HyClone Laboratories Inc., Logan, UT, cat. SH30070.03HI), 50% L-WRN conditioned media (ATCC, cat. CRL-3276), 1.25 mM N-Acetyl-L-cysteine (Sigma-Aldrich, cat. A9165), 10 mM nicotinamide (Sigma-Aldrich, cat. N0636), 1X B-27 supplement (Thermo Fisher Scientific, cat. 17504044), 1X N-2 supplement (Thermo Fisher Scientific, cat. […]

[1] = curve of first compound, second compound 0.0316 µM
[2] = curve of first compound, second compound 0.1 µM
[3] = curve of first compound, second compound 0.316 µM
[4] = curve of first compound, second compound 1 µM
[5] = curve of first compound, second compound 3.16 µM
[6] = curve of first compound, second compound 10 µM
[7] = second compound 0.0316 µM, first compound 0.0316 µM
[8] = second compound 0.0316 µM, first compound 0.1 µM
[9] = second compound 0.0316 µM, first compound 0.316 µM
[10] = second compound 0.0316 µM, first compound 1 µM
[11] = second compound 0.0316 µM, first compound 3.16 µM
[12] = second compound 0.0316 µM, first compound 10 µM
[13] = second compound 0.1 µM, first compound 0.0316 µM
[14] = second compound 0.1 µM, first compound 0.1 µM
[15] = second compound 0.1 µM, first compound 0.316 µM
[16] = second compound 0.1 µM, first compound 1 µM
[17] = second compound 0.1 µM, first compound 3.16 µM
[18] = second compound 0.1 µM, first compound 10 µM
[19] = second compound 0.316 µM, first compound 0.0316 µM
[20] = second compound 0.316 µM, first compound 0.1 µM
[21] = second compound 0.316 µM, first compound 0.316 µM
[22] = second compound 0.316 µM, first compound 1 µM
[23] = second compound 0.316 µM, first compound 3.16 µM
[24] = second compound 0.316 µM, first compound 10 µM
[25] = second compound 1 µM, first compound 0.0316 µM
[26] = second compound 1 µM, first compound 0.1 µM
[27] = second compound 1 µM, first compound 0.316 µM
[28] = second compound 1 µM, first compound 1 µM
[29] = second compound 1 µM, first compound 3.16 µM
[30] = second compound 1 µM, first compound 10 µM
[31] = second compound 3.16 µM, first compound 0.0316 µM
[32] = second compound 3.16 µM, first compound 0.1 µM
[33] = second compound 3.16 µM, first compound 0.316 µM
[34] = second compound 3.16 µM, first compound 1 µM
[35] = second compound 3.16 µM, first compound 3.16 µM
[36] = second compound 3.16 µM, first compound 10 µM
[37] = second compound 10 µM, first compound 0.0316 µM
[38] = second compound 10 µM, first compound 0.1 µM
[39] = second compound 10 µM, first compound 0.316 µM
[40] = second compound 10 µM, first compound 1 µM
[41] = second compound 10 µM, first compound 3.16 µM
[42] = second compound 10 µM, first compound 10 µM
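Note: luminescence signal used as surrogate measure of viable cells; spheroids exposed to compounds for seven days before readout.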
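Throughout, for viability, T/C: 100% = DMSO vehicle control viability as luminescence relative to vehicle.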

Structure (SMILES): COc1cc(C2c3cc4c(cc3C(OC3OC5COC(C)OC5C(O)C3O)C3COC(=O)C23)OCO4)cc(OC)c1O (configuration not stated)
- viability, T/C (compound 0.0316 µM): 99.3% and 97.8% and 98.3%
- viability, T/C (compound 0.1 µM): 83.6% and 97.1% and 85.7%
- viability, T/C (compound 0.316 µM): 67.2% and 76.3% and 51.2%
- viability, T/C (compound 1 µM): 21% and 16.1% and 18%
- viability, T/C (compound 3.16 µM): 18.4% and 7.9% and 16%
- viability, T/C (compound 10 µM): 16.8% and 7.28% and 16.6%
- IC50 (curve of compound): 483 nM and 523 nM and 313 nM

Structure (SMILES): C=CCn1c(=O)c2cnc(Nc3ccc(N4CCN(C)CC4)cc3)nc2n1-c1cccc(C(C)(C)O)n1
- viability, T/C (compound 0.00316 µM): 99.5% and 101% and 95.1%
- viability, T/C (compound 0.01 µM): 103% and 107% and 104%
- viability, T/C (compound 0.0316 µM): 89.4% and 120% and 103%
- viability, T/C (compound 0.1 µM): 82.4% and 97.7% and 98.2%
- viability, T/C (compound 0.316 µM): 91.7% and 94% and 88.9%
- viability, T/C (compound 1 µM): 17.4% and 20% and 18.9%
- IC50 (curve of compound): 603 nM and 621 nM and 600 nM

Structure (SMILES): CC(=O)O[C@H]1C(=O)[C@@]2(C)[C@H]([C@H](OC(=O)c3ccccc3)[C@]3(O)C[C@H](OC(=O)[C@H](O)[C@@H](NC(=O)c4ccccc4)c4ccccc4)C(C)=C1C3(C)C)[C@]1(OC(C)=O)CO[C@@H]1C[C@@H]2O
- viability, T/C (compound 0.00949 µM): 62.4% and 68.4% and 14%
- viability, T/C (compound 0.03 µM): 18.6% and 19.8% and 13.2%
- viability, T/C (compound 0.0949 µM): 14.8% and 17.6% and 11.4%
- viability, T/C (compound 0.3 µM): 19.5% and 16.1% and 12.9%
- viability, T/C (compound 0.949 µM): 19.7% and 25.1% and 11.1%
- viability, T/C (compound 3 µM): 29.5% and 28.1% and 14%
- IC50 (curve of compound): 13.4 nM and 14.9 nM and < 9.49 nM

Structure (SMILES): O=c1[nH]cc(F)c(=O)[nH]1
- viability, T/C (compound 0.0316 µM): 89.3% and 95% and 104%
- viability, T/C (compound 0.1 µM): 103% and 106% and 96%
- viability, T/C (compound 0.316 µM): 92.2% and 102% and 97.8%
- viability, T/C (compound 1 µM): 84% and 89.3% and 89.6%
- viability, T/C (compound 3.16 µM): 70.4% and 45.9% and 66.5%
- viability, T/C (compound 10 µM): 45.4% and 32.2% and 40.9%
- IC50 (curve of compound): 8200 nM and 2830 nM and 6660 nM

Structure (SMILES): CCc1cc2c(N3CCc4c(cc(Cn5ccnc5)cc4-c4cn(C)nc4C(F)(F)F)C3=O)ccnc2c(OC)n1 + COC1C(OC(N)=O)C(O)C(Oc2ccc3c(O)c(NC(=O)c4ccc(O)c(CC=C(C)C)c4)c(=O)oc3c2C)OC1(C)C
- IC50 [1]: 2760 nM
- IC50 [2]: 2630 nM
- IC50 [3]: 2660 nM
- IC50 [4]: 2270 nM
- IC50 [5]: 1720 nM
- IC50 [6]: 843 nM
- viability, T/C [7]: 93.4%
- viability, T/C [8]: 96.9%
- viability, T/C [9]: 71.1%
- viability, T/C [10]: 68.2%
- viability, T/C [11]: 45.8%
- viability, T/C [12]: 39.6%
- viability, T/C [13]: 107%
- viability, T/C [14]: 93%
- viability, T/C [15]: 69.5%
- viability, T/C [16]: 74%
- viability, T/C [17]: 42.3%
- viability, T/C [18]: 32.6%
- viability, T/C [19]: 86.2%
- viability, T/C [20]: 74.3%
- viability, T/C [21]: 73.5%
- viability, T/C [22]: 65.5%
- viability, T/C [23]: 45.1%
- viability, T/C [24]: 33.4%
- viability, T/C [25]: 89.7%
- viability, T/C [26]: 83.9%
- viability, T/C [27]: 61.8%
- viability, T/C [28]: 62%
- viability, T/C [29]: 49.2%
- viability, T/C [30]: 32.8%
- viability, T/C [31]: 96.7%
- viability, T/C [32]: 74.8%
- viability, T/C [33]: 71.5%
- viability, T/C [34]: 50.5%
- viability, T/C [35]: 46.4%
- viability, T/C [36]: 37.3%
- viability, T/C [37]: 91.8%
- viability, T/C [38]: 85.7%
- viability, T/C [39]: 67.8%
- viability, T/C [40]: 46.7%
- viability, T/C [41]: 40.2%
- viability, T/C [42]: 39.6%

Structure (SMILES): CC1COCCN1c1cc(-c2ccnn2C)c2ccnc(-c3ccn[nH]3)c2n1 (configuration not stated) + Cc1cccc(N(C)C(=O)C2C(O)CCN2c2nc(C)cc(C(F)(F)F)c2C#N)c1
- IC50 [1]: 135 nM
- IC50 [2]: 121 nM
- IC50 [3]: 128 nM
- IC50 [4]: 88.5 nM
- IC50 [5]: 90.9 nM
- IC50 [6]: 106 nM
- viability, T/C [7]: 88.1%
- viability, T/C [8]: 54.9%
- viability, T/C [9]: 34.8%
- viability, T/C [10]: 15.2%
- viability, T/C [11]: 9.81%
- viability, T/C [12]: 10.9%
- viability, T/C [13]: 83.7%
- viability, T/C [14]: 54.4%
- viability, T/C [15]: 26.7%
- viability, T/C [16]: 11.2%
- viability, T/C [17]: 9.92%
- viability, T/C [18]: 10.2%
- viability, T/C [19]: 82.1%
- viability, T/C [20]: 55.4%
- viability, T/C [21]: 29.9%
- viability, T/C [22]: 12.9%
- viability, T/C [23]: 9.82%
- viability, T/C [24]: 8.22%
- viability, T/C [25]: 86.3%
- viability, T/C [26]: 44.1%
- viability, T/C [27]: 28.4%
- viability, T/C [28]: 13.8%
- viability, T/C [29]: 11.9%
- viability, T/C [30]: 9.85%
- viability, T/C [31]: 77.9%
- viability, T/C [32]: 44.1%
- viability, T/C [33]: 35%
- viability, T/C [34]: 16.1%
- viability, T/C [35]: 11.2%
- viability, T/C [36]: 10.4%
- viability, T/C [37]: 77.4%
- viability, T/C [38]: 50.7%
- viability, T/C [39]: 30.7%
- viability, T/C [40]: 17.7%
- viability, T/C [41]: 11.7%
- viability, T/C [42]: 9.99%

From PubChem BioAssay AID1963845 (Molecular Pharmacology Branch, DTP, NCI, 2024)
